The target in one assay is TrkA kinase (Homo sapiens, UniProt P04629). In words: TrkA kinase biochemical activity assay (AlphaScreen). The following applies: 100 μM ATP; read-out: Biochemical Inhibition IC50 TrkA. In short, it runs like this:
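IC50 values come from AlphaScreen PY20/streptavidin bead signal versus compound concentration. Kinase reaction: 1 ng/well TrkA, 100 μM ATP, 30 nM biotin-(E4Y)10 substrate, Mn2+-containing Hepes buffer pH 7.5, 5% DMSO, 40 min, room temperature; TrkC assayed by the same approach.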
For orientation: In Alpha technology, singlet oxygen from a donor bead excites a nearby acceptor bead.

In the next assay the target is T1, BCR-NTRK3 BaF3 cells (Homo sapiens, UniProt Q16288).
T1 construct: fused on or other part: P11274 (Breakpoint cluster region protein)
In words: BaF3 BCR-NTRK3 cell proliferation assay (ATPlite). The assay is classed as cell-based. The following applies: read-out: Inhibition of Cell Proliferation IC50, BCR/BaF3 TrkC. The procedure, abridged: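 Cells are plated overnight: BaF3 at 10,000/well in G418 medium without WEHI/IL-3, MV-4-11 at 25,000/well in IMDM with 10% FBS. An 8-point 1:3 compound titration (10 μM top) is then added, and plates are incubated 3 days at 37 °C before ATPlite readout and IC50 determination.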
(In general: ATP-based viability assays read luminescence as a measure of living cells.)

Molecules are shown by their SMILES.

Chain of TrkA kinase (P04629 33-796): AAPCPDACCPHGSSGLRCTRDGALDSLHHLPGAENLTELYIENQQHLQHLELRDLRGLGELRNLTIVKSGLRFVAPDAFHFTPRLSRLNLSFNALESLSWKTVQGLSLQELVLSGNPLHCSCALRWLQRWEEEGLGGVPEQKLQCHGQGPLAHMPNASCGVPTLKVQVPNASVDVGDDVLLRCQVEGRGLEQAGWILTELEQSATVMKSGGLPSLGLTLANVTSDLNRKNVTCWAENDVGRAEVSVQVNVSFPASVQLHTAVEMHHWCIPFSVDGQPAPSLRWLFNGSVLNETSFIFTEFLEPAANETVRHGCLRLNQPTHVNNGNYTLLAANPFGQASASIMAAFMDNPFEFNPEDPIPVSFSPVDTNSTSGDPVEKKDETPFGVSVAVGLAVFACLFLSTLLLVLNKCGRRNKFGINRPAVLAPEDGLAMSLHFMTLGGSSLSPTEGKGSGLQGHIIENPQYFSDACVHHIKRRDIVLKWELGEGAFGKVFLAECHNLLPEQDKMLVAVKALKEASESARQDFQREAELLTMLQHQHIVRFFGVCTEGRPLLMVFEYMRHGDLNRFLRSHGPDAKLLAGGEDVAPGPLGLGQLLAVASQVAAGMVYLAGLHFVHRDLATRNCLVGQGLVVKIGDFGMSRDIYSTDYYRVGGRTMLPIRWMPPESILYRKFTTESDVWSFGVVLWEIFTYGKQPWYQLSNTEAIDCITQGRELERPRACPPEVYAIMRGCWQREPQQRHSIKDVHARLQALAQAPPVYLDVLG
T1 sequence (Q16288 whole entry, the tested form may be a part): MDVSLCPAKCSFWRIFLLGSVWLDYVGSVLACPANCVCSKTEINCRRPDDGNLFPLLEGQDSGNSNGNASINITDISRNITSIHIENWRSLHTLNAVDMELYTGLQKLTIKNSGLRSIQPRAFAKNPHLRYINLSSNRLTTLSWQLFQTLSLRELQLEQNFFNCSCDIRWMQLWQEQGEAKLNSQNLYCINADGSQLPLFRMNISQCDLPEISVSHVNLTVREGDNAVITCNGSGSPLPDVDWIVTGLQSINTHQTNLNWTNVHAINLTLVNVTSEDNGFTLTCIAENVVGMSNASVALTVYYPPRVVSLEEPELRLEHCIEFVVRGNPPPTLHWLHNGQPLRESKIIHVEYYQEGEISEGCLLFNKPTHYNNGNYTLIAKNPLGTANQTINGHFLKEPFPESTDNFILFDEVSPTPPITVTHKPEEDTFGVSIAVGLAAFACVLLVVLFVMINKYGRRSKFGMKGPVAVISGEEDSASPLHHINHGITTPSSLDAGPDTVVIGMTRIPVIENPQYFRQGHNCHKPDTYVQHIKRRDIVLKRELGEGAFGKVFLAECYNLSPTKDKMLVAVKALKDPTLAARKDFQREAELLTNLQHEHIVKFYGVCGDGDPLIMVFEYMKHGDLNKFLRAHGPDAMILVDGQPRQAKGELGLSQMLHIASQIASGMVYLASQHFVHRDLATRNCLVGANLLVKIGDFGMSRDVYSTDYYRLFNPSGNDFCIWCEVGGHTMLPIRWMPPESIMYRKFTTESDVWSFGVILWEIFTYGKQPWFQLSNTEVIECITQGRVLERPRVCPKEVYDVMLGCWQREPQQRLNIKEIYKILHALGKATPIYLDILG

Consider `CNc1ncnc2[nH]cc(C(=O)c3ccc(Nc4ccc(C)nc4)nc3F)c12` [Compound P-4115, [2-fluoro-6-[(6-methyl-3-pyridyl)amino]-3-pyridyl]-[4-(methylamino)-7H-pyrrolo[2,3-d]pyrimidin-5-yl]methanone], for which the IC50 at TrkA kinase and on BCR-NTRK3 BaF3 cells was below 0.01 µM in each case.

On to `CCc1ccc(Nc2ccc(C(=O)c3c[nH]c4ncnc(NCC5CC5)c34)c(F)n2)cn1` [Compound P-4118, [4-(cyclopropylmethylamino)-7H-pyrrolo[2,3-d]pyrimidin-5-yl]-[6-[(6-ethyl-3-pyridyl)amino]-2-fluoro-3-pyridyl]methanone], for which the IC50 at TrkA kinase and at BCR-NTRK3 BaF3 cells was below 0.01 µM throughout.

As for `CCN1CCC(Nc2ncnc3[nH]cc(C(=O)c4ccc(Nc5ccc(OC)nc5)nc4F)c23)CC1` [Compound P-4074, [4-[(1-ethyl-4-piperidyl)amino]-7H-pyrrolo[2,3-d]pyrimidin-5-yl]-[2-fluoro-6-[(6-methoxy-3-pyridyl)amino]-3-pyridyl]methanone], the IC50 on TrkA kinase and at BCR-NTRK3 BaF3 cells was below 0.01 µM throughout.

In the case of `COc1ccc(Nc2ccc(C(=O)c3c[nH]c4ncnc(N5CCCCC5)c34)c(F)n2)cn1` [Compound P-4069, [2-fluoro-6-[(6-methoxy-3-pyridyl)amino]-3-pyridyl]-[4-(1-piperidyl)-7H-pyrrolo[2,3-d]pyrimidin-5-yl]methanone], the IC50 was below 0.1 µM at TrkA kinase and above 1 µM on BCR-NTRK3 BaF3 cells.

`CCc1ccc(Nc2ccc(C(=O)c3c[nH]c4ncnc(NCCOC)c34)c(F)n2)cn1` [Compound P-4119, [6-[(6-ethyl-3-pyridyl)amino]-2-fluoro-3-pyridyl]-[4-(2-methoxyethylamino)-7H-pyrrolo[2,3-d]pyrimidin-5-yl]methanone]: the IC50 on TrkA kinase and at BCR-NTRK3 BaF3 cells was below 0.01 µM each time.

As for `CCNc1ncnc2[nH]cc(C(=O)c3ccc(Nc4ccc(C5CC5)nc4)nc3F)c12` [Compound P-4060, [6-[(6-cyclopropyl-3-pyridyl)amino]-2-fluoro-3-pyridyl]-[4-(ethylamino)-7H-pyrrolo[2,3-d]pyrimidin-5-yl]methanone], the IC50 on TrkA kinase and on BCR-NTRK3 BaF3 cells was below 0.01 µM each time.

Regarding `O=C(c1ccc(NC2CCC(F)(F)CC2)nc1F)c1c[nH]c2ncnc(NCC(F)(F)F)c12` [Compound P-4061, [6-[(4,4-difluorocyclohexyl)amino]-2-fluoro-3-pyridyl]-[4-(2,2,2-trifluoroethylamino)-7H-pyrrolo[2,3-d]pyrimidin-5-yl]methanone], the IC50 on TrkA kinase is below 0.1 µM; on BCR-NTRK3 BaF3 cells, below 0.01 µM.

These data come from US8901118B2, “Compounds and methods for kinase modulation, and indications therefor” (Plexxikon Inc., priority 2010, dated 2014).
